The target of one assay is T1, human ORL1 receptor (Homo sapiens, UniProt P41146).
T1 construct: expressed in transfected cells; host or cells: HEK-293
Description: ORL1-Receptor Binding Assay ([3H]nociceptin, SPA). Here is the method:
ORL1-Receptor Binding Assay:
The human ORL1 receptor transfected HEK-293 cell membranes were incubated for 45 min at 22° C. with 0.4 nM [^3H]nociceptin, 1.0 mg of wheat germ agglutinin-coated SPA beads and various concentrations of test compounds in a final volume of 200 μl of 50 mM HEPES buffer pH 7.4 containing 10 mM MgCl2 and 1 mM EDTA. Non-specific binding was determined by the addition of 1 μM unlabeled nociceptin. After the reaction, the assay plate was centrifuged at 1,000 rpm for 1 min and then the radioactivity was measured by a Liquid Scintillation Counter.
(§1) Each percent […] binding thus obtained is graphed as a function of compound concentration. A sigmoidal curve is used to determine 50% bindings (i.e., IC50 values).

The target in another assay is T2, human Mu receptor (Homo sapiens, UniProt P35372).
T2 construct: expressed in transfected cells; host or cells: CHO-K1
T2 sequence (P35372 whole entry): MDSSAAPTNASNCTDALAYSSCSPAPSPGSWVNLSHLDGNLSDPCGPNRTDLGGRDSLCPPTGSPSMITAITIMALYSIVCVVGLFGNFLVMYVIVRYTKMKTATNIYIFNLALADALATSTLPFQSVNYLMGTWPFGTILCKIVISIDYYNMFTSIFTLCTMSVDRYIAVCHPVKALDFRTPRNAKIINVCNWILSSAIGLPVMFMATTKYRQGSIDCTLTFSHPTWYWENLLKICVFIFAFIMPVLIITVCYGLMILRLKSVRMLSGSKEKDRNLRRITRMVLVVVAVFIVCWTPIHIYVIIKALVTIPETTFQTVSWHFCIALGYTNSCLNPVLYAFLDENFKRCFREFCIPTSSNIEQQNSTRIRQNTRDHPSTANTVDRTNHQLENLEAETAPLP
Put plainly: μ-Receptor Binding Assay ([3H]DAMGO, SPA). The following applies: human Mu receptor transfected CHO-K1 cell membranes, 1.0 nM [3H]DAMGO. Here is the method:
μ-Receptor Binding Assay:
The human Mu receptor transfected CHO-K1 cell membranes were incubated for 45 min at 22° C. with 1.0 nM [^3H]DAMGO, 1.0 mg of wheat germ agglutinin-coated SPA beads and various concentrations of test compounds in a final volume of 200 μl of 50 mM Tris-HCl buffer pH 7.4 containing 5 mM MgCl2. Non-specific binding was determined by the addition of 1 μM unlabeled DAMGO. After the reaction, the assay plate was centrifuged at 1,000 rpm for 1 min and then the radioactivity was measured by a Liquid Scintillation Counter.
as §1

T1 sequence (P41146 whole entry): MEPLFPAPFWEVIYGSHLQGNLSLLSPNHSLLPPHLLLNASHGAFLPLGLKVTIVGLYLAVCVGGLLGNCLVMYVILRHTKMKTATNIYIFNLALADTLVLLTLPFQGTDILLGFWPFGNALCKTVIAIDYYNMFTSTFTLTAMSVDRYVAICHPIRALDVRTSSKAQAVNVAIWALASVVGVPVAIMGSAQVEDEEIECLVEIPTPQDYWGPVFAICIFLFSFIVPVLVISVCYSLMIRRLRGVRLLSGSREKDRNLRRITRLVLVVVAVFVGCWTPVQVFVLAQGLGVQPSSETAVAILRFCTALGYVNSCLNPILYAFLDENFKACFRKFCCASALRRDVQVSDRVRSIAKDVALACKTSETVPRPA

Broadly, the IC50 is the midpoint of a concentration-inhibition curve. Read a low IC50 as higher potency. Take `O=c1oc2ccccc2n1CCCN1CCC2(CCc3ccccc32)CC1` [Example 9, 2,3-Dihydro-1′-[3-(2-oxo-1,3-benzoxazol-3(2H)-yl)propyl]spiro[1H-indene-1,4′-piperidine]]: the results for the IC50 at human ORL1 receptor and on human Mu receptor were 0.089 µM and 0.871 µM, respectively. Also, the “selectivity of binding affinity, ORL-1 receptor versus mu-receptor (in words)” value on human ORL1 receptor (comparison of ORL1 and mu binding assays) is given as “selective affinity for ORL-1 receptor over mu-receptor”.

The values are drawn from patent US20030078278A1, “Spiropiperidine compounds as ligands for ORL-1 receptor” (Pfizer Inc., priority 2001, published 2003).
